Earlier results on 1 compound are cited in patent publication US8679103B2, “Two step mammalian biofilm treatment processes and systems” (priority 2008, dated 2014).

This data set has as its system S. aureus Xen 31. The note with it: stated as established.

Values after ≈ are worked out from the molar mass of the structure shown.

For `O=C(O)c1cn(C2CC2)c2cc(N3CCNCC3)c(F)cc2c1=O` [ciprofloxacin], the minimum inhibitory concentration was 3 µg/mL (≈ 9.05 µM).
